Each structure is given as a SMILES string.

Usually melting point stands for the temperature, or range, at which the solid turns liquid. By IC50 is commonly meant the concentration that gives 50% inhibition. A low value points to higher potency.

In one data set the target is HIV-1 RT (Human immunodeficiency virus type 1 group M subtype B, UniProt P03366). Kind of data set: Heteropolymer HIV reverse Transcriptase Assay: Inhibitor IC50 Determination. The class given is biochemical. Conditions: RNA-dependent DNA polymerase activity, biotinylated DNA primer/RNA template, SPA beads, 30°C 30 min. The protocol: Heteropolymer HIV reverse Transcriptase Assay: Inhibitor IC50 Determination
RNA-dependent DNA polymerase activity was measured using a biotinylated primer oligonucleotide and tritiated dNTP substrate. Newly synthesized DNA was quantified by capturing the biotinylated primer molecules on streptavidin coated Scintillation Proximity Assay (SPA) beads (Amersham). The sequences of the polymerase assay substrate were: 18nt DNA primer, 5′-Biotin/GTC CCT GTT CGG GCG CCA-3′ (SEQ. ID NO. 2); 47nt RNA template, 5′-GGGUCUCUCUGGUUAGACCACUCUAGCAGUGGCGCCCGAACAGGGAC-3′ (SEQ ID NO. 1). The biotinylated DNA primer was obtained from the Integrated DNA Technologies Inc. and the RNA template was synthesized by Dharmacon. The DNA polymerase assay (final volume 50 μl) contained 32 nM biotinylated DNA primer, 64 nM RNA substrate, dGTP, dCTP, dTTP (each at 5 μM), 103 nM [^3H]-dATP (specific activity=[…]), in 45 mM Tris-HCl, pH 8.0, 45 mM NaCl, 2.7 mM Mg(CH3COO)2, 0.045% Triton X-100 w/v, 0.9 mM EDTA. The reactions contained 5 μl of serial compound dilutions in 100% DMSO for IC50 determination and the final concentrations of DMSO were 10%. Reactions were initiated by the addition of 30 μl of the HIV-1-RT enzyme (final concentrations of 1-3 nM). Protein concentrations were adjusted to provide linear product formation for at least 30 min of incubation. After incubation at 30°C for 30 min, the reaction was quenched by addition of 50 μl of 200 mM EDTA (pH 8.0) and 2 mg/ml SA-PVT SPA beads (Amersham, RPNQ0009, reconstituted in 20 mM Tris-HCl, pH 8.0, 100 mM EDTA and 1% BSA). The beads were left to settle overnight and the SPA signals were counted in a 96-well top counter-NXT (Packard). IC50 values were obtained by sigmoidal regression analysis using GraphPad Prism 3.0 (GraphPad Software, Inc.).

Turning to `Cl.N#Cc1cc(Cl)cc(Oc2c(Br)ccc(CC(=O)Nc3ccc(C(=O)NCCN4CCC(F)(F)CC4)cc3Cl)c2F)c1` [Compound I-40, 4-{2-[4-Bromo-3-(3-chloro-5-cyano-phenoxy)-2-fluoro-phenyl]-acetylamino}-3-chloro-N-[2-(4,4-difluoro-piperidin-1-yl)-ethyl]-benzamide; hydrochloride salt], the melting point lay within 140.2 to 143.3 °C. At HIV-1 RT, this molecule came in with an IC50 of 37 nM.

Regarding `CC(C)(CN1CCCC1)NC(=O)c1ccc(NC(=O)Cc2ccc(Br)c(Oc3cc(Cl)cc(C#N)c3)c2F)c(Cl)c1` [Compound I-45, 4-{2-[4-Bromo-3-(3-chloro-5-cyano-phenoxy)-2-fluoro-phenyl]-acetylamino}-3-chloro-N-(1,1-dimethyl-2-pyrrolidin-1-yl-ethyl)-benzamide], the melting point stood at 70 °C. At HIV-1 RT, this molecule displayed an IC50 of 4.1 nM.

`CN1CCC(NC(=O)c2ccc(NC(=O)Cc3ccc(Br)c(Oc4cc(Cl)cc(C#N)c4)c3F)c(Cl)c2)C1` (centres unmarked) [Compound I-50, 4-{2-[4-Bromo-3-(3-chloro-5-cyano-phenoxy)-2-fluoro-phenyl]-acetylamino}-3-chloro-N-(1-methyl-pyrrolidin-3-yl)-benzamide] displayed a melting point of 204 °C. This molecule also showed an IC50 against HIV-1 RT of 6.9 nM.

For `N#Cc1cc(Cl)cc(Oc2c(Br)ccc(CC(=O)Nc3ccc(C(=O)NC4CCS(=O)(=O)C4)cc3Cl)c2F)c1` (centres unmarked) [Compound I-55, 4-{2-[4-Bromo-3-(3-chloro-5-cyano-phenoxy)-2-fluoro-phenyl]-acetylamino}-3-chloro-N-(1,1-dioxo-tetrahydro-1λ^6-thiophen-3-yl)-benzamide], the melting point came to 236.6 °C. The IC50 against HIV-1 RT stood at 16.3 nM.

(Values after US7754919B2, “Non-nucleoside reverse transcriptase inhibitors” (Roche Palo Alto LLC, priority 2005, dated 2010).)
